According to patent US11413280B2 (The Board of Trustees of the Leland Stanford Junior …, priority 2017, dated 2022):
Entries after “also recorded” stand apart in the source; their conditions may differ.

Key:
miR17-5 = assay: Relative miR17-5 expression in PAECs (qPCR); assay type: cell-based, human; details: 15 μM Enzastaurin 24 hours
PAEC [1] = assay: Matrigel tube formation assay; assay type: cell-based, human; details: FHIT- and BMPR2-deficient PAECs, 15 μM Enzastaurin for 24 hours
Protocol: (§1) Assays were conducted according to the manufacturer's instructions and as previously described(E1,E9).
Quantified area=% of cells that show nuclear γH2AX staining quantified with automated software (white nuclei=positive stain, grey nuclei=background stain). […] FIGS. 9G-9H, MTT proliferation assay in Enzastaurin-treated (0.5-50 M) in PASMC and PAEC, respectively. (n=3). FIGS. 9I-9J, MTT proliferation assay in Enzastaurin-treated (5 M) siFHIT and siBMPR2 transfected PASMC compared to Ntsi control, respectively. (n=3).
Loss of FHIT and BMPR2 impaired PAECs tube formation 6 hours after cells were seeded in a Matrigel tube formation assay(12) compared to cells treated with control Ntsi (FIG. 9A, FIG. 9B).

PAEC [2] = assay: γH2AX staining (DNA damage); assay type: cell-based, human; details: siBMPR2 and siFHIT PAEC, 10 μM Enzastaurin for 24 hours
Protocol: as §1
Quantified area=% of cells that show nuclear γH2AX staining quantified with automated software (white nuclei=positive stain, grey nuclei=background stain). […] (n=3). […] (n=3).
As a cumulative viability measurement, we quantified caspase3/7 activity, using the luminescent Caspase-Glo®3/7 assay(36) and DNA damage, using histone H2AX phosphorylation by immunofluorescence and quantification as nuclear area staining (%) by confocal microscopy(34, 35, 37). […] PAEC proliferation was assessed via an MTT proliferation assay and hemocytometer cell counts(36).

PASMC = assay: MTT proliferation assay in PASMC; assay type: cell-based, human; details: siFHIT PASMC, Enzastaurin 5 M as printed
[3] = test system: hypoxia-induced experimental PAH in C57BL/6 and BMPR2+/− C57BL/6 mice; assay: Hypoxia-induced experimental PAH in wildtype and Bmpr2+/− mice; assay type: in vivo, mouse
Protocol: Right Ventricular (RV) Systolic Pressure was measured through right jugular vein catheterization and RV hypertrophy was assessed by the weight ratio of the RV to left ventricle+septum. Vessel loss and muscularization of lung vessels were visualized by MOVAT pentachrome stain. […] Arrows indicate vessel position. FIG. 3F, Representative MOVAT lung histology depicting vessel structure. Arrows indicate vessel position.
Fhit homozygous (−/−) mice were obtained from Kay F. Huebner (Ohio State University). Bmpr2+/− mice were a gift from Marlene Rabinovitch (Stanford University). Adult wildtype C57BL/6 mice, Bmpr2+/− or Fhit−/− mice at 8-10 weeks of age were housed in chronic hypoxia (10% O2) for 3 weeks, followed by a recovery period of 4 weeks in normoxia (21% O2). […] Development of experimental PH was induced in adult Sprague Dawley rats (8 weeks old, 180-220 g) through a subcutaneous dose of the VEGFR-2 inhibitor SUGEN5416 (20 mg/kg body weight), followed by exposure to chronic hypoxia (10% O2) for 3 weeks and normoxia for 5 weeks (21% O2), as previously described(12). […] Right Ventricular (RV) Systolic Pressure was measured through right jugular vein catheterization, and RV hypertrophy (RVH) was assessed by the weight ratio of the RV to left ventricle and septum (LV+S).
FIG. 24E, Representative MOVAT lung histology. Arrows indicate vessel position. FIGS. 24F-24G, Representative MOVAT lung histology of large (FIG. 24F) and small vessels (FIG. 24G) respectively. Arrows indicate vessel position.

[4] = test system: SUGEN5416/Hypoxia/Normoxia rats; assay: SUGEN5416/Hypoxia/Normoxia rat model of experimental PH; assay type: in vivo
Protocol: Experimental PAH was induced in male Sasco Sprague Dawley rats by subcutaneous injection of 20 mg/kg body weight SU5416. […] Echocardiography was performed to assess development of RV hypertrophy and Ejection Fraction. Right Ventricular (RV) Systolic Pressure was measured through right jugular vein catheterization and RV hypertrophy was assessed by the weight ratio of the RV to left ventricle+septum. Vessel loss and muscularization of lung vessels were visualized by MOVAT pentachrome stain. […] FIG. 4F, Representative MOVAT lung histology. Fhit homozygous (−/−) mice were obtained from Kay F. Huebner (Ohio State University). Bmpr2+/− mice were a gift from Marlene Rabinovitch (Stanford University). Adult wildtype C57BL/6 mice, Bmpr2+/− or Fhit−/− mice at 8-10 weeks of age were housed in chronic hypoxia (10% O2) for 3 weeks, followed by a recovery period of 4 weeks in normoxia (21% O2). […] Development of experimental PH was induced in adult Sprague Dawley rats (8 weeks old, 180-220 g) through a subcutaneous dose of the VEGFR-2 inhibitor SUGEN5416 (20 mg/kg body weight), followed by exposure to chronic hypoxia (10% O2) for 3 weeks and normoxia for 5 weeks (21% O2), as previously described(12). […] Right Ventricular (RV) Systolic Pressure was measured through right jugular vein catheterization, and RV hypertrophy (RVH) was assessed by the weight ratio of the RV to left ventricle and septum (LV+S). Murine and rat lung tissue was fixed in paraformaldehyde (PFA) for 48 hours and preserved in EtOH. Paraffin embedded lung slides were stained with a Movat pentachrome stain (Histo-Tec, Hayward, Calif.), where vessel loss and muscularization of pulmonary vessels was visualized by light microscopy. Fluorescent immunocytochemistry on lung sections was performed on deparaffinized (Histoclear II, National Diagnostics) tissue sections with primary antibodies for von-Willebrand factor (vWF) and alpha smooth muscle actin (αSMA) following antigen-retrieval. Human PAH lung tissue was stained for anti-BMPR2 (Ab130206, Abcam) and anti-FHIT (kind gift of Kay F. Huebner, Ohio State University). PFA-fixed paraffin-embedded heart tissue was stained with trichrome staining (Histo-Tec, Hayward, Calif.) to visualize fibrotic transformation. Sprague Dawley rats, were subcutaneously injected with 20 mg/kg SUGEN5416 once and housed in chronic hypoxia (10%, 3 weeks), followed by 5 weeks in normoxia as previously described(41). […] Hemodynamic assessment of the animals (echocardiography, right heart catheter) was performed before sacrifice and tissue collection. […] Experimental PH was induced in male Sprague Dawley rats by subcutaneous injection of 20 mg/kg body weight SU5416. […] FIG. 11F, Representative MOVAT lung histology, highlighting large pulmonary vessels.

[5] = 3 weeks hypoxia, 5 mg/kg daily by mini-osmotic pump, C57BL/6 and BMPR2+/− mice
[6] = 3 weeks hypoxia, 15 mg/kg/day by mini-osmotic pump, Bmpr2+/− and wildtype mice
[7] = 5 mg/kg daily oral gavage for 3 weeks, vs vehicle
[8] = 5 mg/kg/day oral gavage for 3 weeks, qPCR

**Q.** Which results are given for `Cn1cc(C2=C(c3cn(C4CCN(Cc5ccccn5)CC4)c4ccccc34)C(=O)NC2=O)c2ccccc21` [Enzastaurin, 3-(1-methyl-1H-indol-3-yl)-4-[1-[1-(pyridin-2-ylmethyl)piperidin-4-yl]-1H-indol-3-yl]-1H-pyrrole-2,5-dione]?
**A.** siFHIT-mediated increase in miR17-5 expression (miR17-5): inhibited; Defects in tube formation (PAEC [1]): fully reversed the defects in tube formation; DNA damage (nuclear γH2AX staining) induced by FHIT or BMPR2-loss (PAEC [2]): significantly attenuated; Increased PASMC proliferation induced by reductions in FHIT (MTT) (PASMC): rescued; Hypoxia-induced PH (changes in RVSP, RVH and pulmonary physiology) ([3]; 2-week treatment, 15 mg/kg/day, Bmpr2+/− and wild-type C57BL/6 mice): attenuated; Right ventricle systolic pressure (RVSP) ([3]; 3 weeks hypoxia, 5 mg/kg daily by mini-osmotic pump, vs hypoxia vehicle control): partial reduction; Full or partial muscularization of AW and AD vessels [3, 5]: significantly ameliorated; Loss of alveolar wall (AW) and alveolar duct (AD) pulmonary vessels [3, 5]: significantly ameliorated; Right ventricle (RV) hypertrophy (RV/LV+S) [3, 5]: substantial reduction; Muscularization of distal vessels [3, 6]: prevented; RVH increase [3, 6]: prevented; RVSP increase [3, 6]: prevented; Vascular rarefaction [3, 6]: prevented; Cardiac output ([4]; 5 mg/kg daily oral gavage): improves; Cardiac / RV fibrosis [4, 7]: reverses; also recorded: potently reduced; Full or partial remodeling / muscularization of small and large vessels [4, 7]: substantially and significantly reversed; also recorded: potently reduced; Loss of alveolar wall (AW) and alveolar duct (AD) pulmonary vessels [4, 7]: substantially and significantly reversed; Right ventricle hypertrophy (RVH) [4, 7]: lower; also recorded: potently reduced; Vascular occlusion [4, 7]: reverses; also recorded: nearly entirely reversed; also recorded: significantly less evidence; Right ventricle systolic pressure (RVSP) ([4]; 5 mg/kg daily oral gavage for 3 weeks, vs vehicle treated controls with experimental PAH): lower; Emphysematous changes (linear intercept analysis of MOVAT lung histology) ([4]; 5 mg/kg daily oral gavage, vs untreated controls): significantly less evidence; Reduction of RVSP ([4]; 5 mg/kg/day oral gavage for 3 weeks): over 30 mmHg; BMPR2 expression in whole lung [4, 8]: increased; FHIT expression in whole lung [4, 8]: increased; LVEF (%) by Echocardiography ([4]; before and after 3 weeks of 5 mg/kg daily oral gavage): improvement; SUGEN5416/Hypoxia/Normoxia-induced lung and RV damage ([4]; low-dose Enzastaurin (5 mg/kg/day)): potently reversed
